Data published in patent publication US4194006A, “Therapeutic application of acetyl-d,l-carnitine and other acyl derivatives of d,l-carnitine” (priority 1977, dated 1980).
Read-outs that look alike come from different tables or passages of the source.

Columns and labels:
isolated rat atrium = assay: antiarrhythmic effect, isolated rat atrium method of M. Libonati and G. Segre; details: Rattus norvegicus; for inhibition at 0.1 µg/mL / activation at 0.1 µg/mL: 1·10^-4 g/lt; for inhibition at 0.1 µg/mL / inhibition at 0.01 µg/mL / inhibition at 0.001 µg/mL: decrease; for activation at 0.1 µg/mL / activation at 0.01 µg/mL / activation at 0.001 µg/mL: increase; for inhibition at 0.01 µg/mL / activation at 0.01 µg/mL: 1·10^-5 g/lt; for inhibition at 0.001 µg/mL / activation at 0.001 µg/mL: 1·10^-6 g/lt
female rats = assay: antifatigue effect: rota-rod; assay type: in vivo, rat; details: Rattus norvegicus, ip, 0.25 h, read-out: percentage of animals staying on the rota-rod more than 180 seconds; for responders at 300 mg/kg: 300 mg/kg i.p.; for responders at 400 mg/kg: 400 mg/kg i.p.; for responders at 600 mg/kg: 600 mg/kg i.p.
Method: The antifatigue effect was also examined with the following results. The antifatigue effect was investigated by administering the compounds of the formula (I) according to the present application to female rats intraperitoneally in saline solution and saline solution alone to the controls by the same route. Every 15 minutes (sessions) after treatment, the animals were placed on a 6 cm diameter rod, rotating at 16 r.p.m. The percentage of the animals capable of staying on the rota-rod for a duration of more than 180 seconds was then recorded.

isolated rabbit hearts [1] = assay: coronary vasodilator effect: coronary flow, isolated heart (Langendorff)
Method: (§1) The cardiokinetic effect on isolated heart was also investigated as follows. Rabbit hearts isolated by the Langendorff method were perfused with oxygenized ringer solution at 38.2° C. The isometric contractions, electrocardiogram and coronary flow were recorded using a "Battaglia-Rangoni" polygraph. By removing the oxygen from the perfusion fluid, metabolic damage was induced in the cardia muscle, up to an 80% reduction in the cardiac contractile force.
(§2) Under these conditions of prolonged anoxia the aerobic glycolysis of the myocardium is slowed down, accompanied by the storage of acid catabolites due to both the accumulation of pyruvic acid and its conversion to lactic acid which cannot be utilized because of the depression of pyridine enzymes, such as LDH (lactodehydrogenase). This has repercussions on the anaerobic glycolysis affecting an ever increasing number of enzymes, accompanied by a progressive and increasingly critical exhaustion of the myocardium. Thus a whole series of cardiac muscle fatigue levels occurs which can be observed by the behavior of the examined parameters, namely the contractile force, coronary flow, heart rate and cardiac rhythm. As soon as the contractile force was reduced by 80%, the perfusion fluid was once again oxygenized either without adding other compounds (controls) or with the addition of the compounds under examination.

isolated rabbit hearts [2] = assay: cardiokinetic effect on isolated heart (Langendorff): contractile force after anoxia, positive inotropic effect; details: 10 minutes from interruption of anoxic period
Method: as §1, §2
Table 3 below gives the percentage values of the contractile force of the heart, showing a positive inotropic effect, calculated after 10 minutes from the interruption of the anoxic period (myocardial restoration).

[3] = read-out: Mean percent variation versus controls: excitability (-%)
[4] = read-out: Mean percent variation versus controls: frequency max (-%)
[5] = read-out: Mean percent variation versus controls: refractory period (+%)
[6] = read-out: Mean percent variation versus controls: rheobase (+%)
[7] = session 6 (every 15 minutes), * p < 0.05

Row | Structure (SMILES) | inhibition at 0.1 µg/mL (isolated rat atrium; [3]) [%] | inhibition at 0.1 µg/mL (isolated rat atrium; [4]) [%] | activation at 0.1 µg/mL (isolated rat atrium; [5]) [%] | activation at 0.1 µg/mL (isolated rat atrium; [6]) [%] | inhibition at 0.01 µg/mL (isolated rat atrium; [3]) [%] | inhibition at 0.01 µg/mL (isolated rat atrium; [4]) [%] | activation at 0.01 µg/mL (isolated rat atrium; [5]) [%] | activation at 0.01 µg/mL (isolated rat atrium; [6]) [%] | inhibition at 0.001 µg/mL (isolated rat atrium; [3]) [%] | inhibition at 0.001 µg/mL (isolated rat atrium; [4]) [%] | activation at 0.001 µg/mL (isolated rat atrium; [5]) [%] | activation at 0.001 µg/mL (isolated rat atrium; [6]) [%] | responders at 300 mg/kg (female rats; session 1 (every 15 minutes)) [%] | responders at 300 mg/kg (female rats; session 2 (every 15 minutes)) [%] | responders at 300 mg/kg (female rats; session 3 (every 15 minutes)) [%] | responders at 300 mg/kg (female rats; session 4 (every 15 minutes)) [%] | responders at 300 mg/kg (female rats; session 5 (every 15 minutes)) [%] | responders at 300 mg/kg (female rats; session 6 (every 15 minutes)) [%] | responders at 400 mg/kg (female rats; session 1 (every 15 minutes)) [%] | responders at 400 mg/kg (female rats; session 2 (every 15 minutes)) [%] | other results
1 | CCCCCCCCCC(=O)OC(CC(=O)[O-])C[N+](C)(C)C (racemic) [decanoyl-d,l-carnitine] | 25.2 | 24.8 | 21.6 | 21.2 | 17.2 | 12 | 10.3 | 9.54 | 0 | 8.66 | 9.14 | 3.12 | 0 | 0 | 0 | 10 | 10 | 10 | 0 | 0 | responders at 400 mg/kg (female rats; session 3 (every 15 minutes)): 0%; responders at 400 mg/kg (female rats; session 4 (every 15 minutes)): 10%; responders at 400 mg/kg (female rats; session 5 (every 15 minutes)): 10%; responders at 400 mg/kg (female rats; [7]): 10%; responders at 600 mg/kg (female rats; session 1 (every 15 minutes)): 0%; responders at 600 mg/kg (female rats; session 2 (every 15 minutes)): 0%; responders at 600 mg/kg (female rats; session 3 (every 15 minutes)): 0%; responders at 600 mg/kg (female rats; session 4 (every 15 minutes)): 10%; responders at 600 mg/kg (female rats; session 5 (every 15 minutes)): 10%; responders at 600 mg/kg (female rats; [7]): 20%; Coronary flow, Mean ± S.E. (isolated rabbit hearts [1]; 1·10^-5 g/lt): 83.21 ± 5.70%; Coronary flow, Mean ± S.E. (isolated rabbit hearts [1]; 1·10^-6 g/lt): 76.30 ± 9.42%; Coronary flow, Mean ± S.E. (isolated rabbit hearts [1]; 5·10^-6 g/lt): 72.60 ± 12.4%; Contractile force, Mean ± S.E. (isolated rabbit hearts [2]; 1·10^-5 g/lt): 36.3 ± 6.53%; Contractile force, Mean ± S.E. (isolated rabbit hearts [2]; 1·10^-6 g/lt): 26.9 ± 5.02%; Contractile force, Mean ± S.E. (isolated rabbit hearts [2]; 5·10^-6 g/lt): 29.1 ± 3.12%
2 | CCCCCC(=O)OC(CC(=O)[O-])C[N+](C)(C)C (racemic) [hexanoyl-d,l-carnitine] | 26.3 | 25.1 | 21.7 | 21.7 | 18.2 | 12.3 | 12.7 | 10.1 | 12.4 | 8.71 | 9.04 | 6.2 | 0 | 0 | 0 | 0 | 10 | 10 | 0 | 0 | responders at 400 mg/kg (female rats; session 3 (every 15 minutes)): 0%; responders at 400 mg/kg (female rats; session 4 (every 15 minutes)): 0%; responders at 400 mg/kg (female rats; session 5 (every 15 minutes)): 10%; responders at 400 mg/kg (female rats; [7]): 10%; responders at 600 mg/kg (female rats; session 1 (every 15 minutes)): 0%; responders at 600 mg/kg (female rats; session 2 (every 15 minutes)): 0%; responders at 600 mg/kg (female rats; session 3 (every 15 minutes)): 10%; responders at 600 mg/kg (female rats; session 4 (every 15 minutes)): 10%; responders at 600 mg/kg (female rats; session 5 (every 15 minutes)): 20%; responders at 600 mg/kg (female rats; [7]): 30%; Coronary flow, Mean ± S.E. (isolated rabbit hearts [1]; 1·10^-5 g/lt): 84.08 ± 5.14%; Coronary flow, Mean ± S.E. (isolated rabbit hearts [1]; 1·10^-6 g/lt): 76.25 ± 4.75%; Coronary flow, Mean ± S.E. (isolated rabbit hearts [1]; 5·10^-6 g/lt): 75.28 ± 8.36%; Contractile force, Mean ± S.E. (isolated rabbit hearts [2]; 1·10^-5 g/lt): 38.0 ± 4.80%; Contractile force, Mean ± S.E. (isolated rabbit hearts [2]; 1·10^-6 g/lt): 24.2 ± 3.88%; Contractile force, Mean ± S.E. (isolated rabbit hearts [2]; 5·10^-6 g/lt): 28.8 ± 3.16%
3 | CCCCCCCC(=O)OC(CC(=O)[O-])C[N+](C)(C)C (racemic) [octanoyl-d,l-carnitine] | 47.8 | 17.2 | 39.8 | 4.16 | 28.6 | 36.2 | 16.5 | 0 | 12.7 | 10.9 | 5.73 | 9.46 | 0 | 0 | 0 | 0 | 10 | 10 | 0 | 0 | responders at 400 mg/kg (female rats; session 3 (every 15 minutes)): 0%; responders at 400 mg/kg (female rats; session 4 (every 15 minutes)): 0%; responders at 400 mg/kg (female rats; session 5 (every 15 minutes)): 10%; responders at 400 mg/kg (female rats; [7]): 10%; responders at 600 mg/kg (female rats; session 1 (every 15 minutes)): 0%; responders at 600 mg/kg (female rats; session 2 (every 15 minutes)): 0%; responders at 600 mg/kg (female rats; session 3 (every 15 minutes)): 10%; responders at 600 mg/kg (female rats; session 4 (every 15 minutes)): 10%; responders at 600 mg/kg (female rats; session 5 (every 15 minutes)): 10%; responders at 600 mg/kg (female rats; [7]): 30%; Coronary flow, Mean ± S.E. (isolated rabbit hearts [1]; 1·10^-5 g/lt): 84.71 ± 6.20%; Coronary flow, Mean ± S.E. (isolated rabbit hearts [1]; 1·10^-6 g/lt): 76.24 ± 6.13%; Coronary flow, Mean ± S.E. (isolated rabbit hearts [1]; 5·10^-6 g/lt): 76.00 ± 9.16%; Contractile force, Mean ± S.E. (isolated rabbit hearts [2]; 1·10^-5 g/lt): 37.8 ± 4.62%; Contractile force, Mean ± S.E. (isolated rabbit hearts [2]; 1·10^-6 g/lt): 25.2 ± 3.60%; Contractile force, Mean ± S.E. (isolated rabbit hearts [2]; 5·10^-6 g/lt): 29.8 ± 4.13%
